Measurements published in patent US8299048B2, “Hexahydrocyclopentyl[f]indazole sulfonamides and derivatives thereof as selective glucocorticoid receptor modulators” (Merck Sharp & Dohme Corp., priority 2008, dated 2012).
Like-named read-outs stand apart in the source and are kept apart here.

Target: T1, human GR (Homo sapiens, UniProt P04150)
T1 sequence (P04150 1-777): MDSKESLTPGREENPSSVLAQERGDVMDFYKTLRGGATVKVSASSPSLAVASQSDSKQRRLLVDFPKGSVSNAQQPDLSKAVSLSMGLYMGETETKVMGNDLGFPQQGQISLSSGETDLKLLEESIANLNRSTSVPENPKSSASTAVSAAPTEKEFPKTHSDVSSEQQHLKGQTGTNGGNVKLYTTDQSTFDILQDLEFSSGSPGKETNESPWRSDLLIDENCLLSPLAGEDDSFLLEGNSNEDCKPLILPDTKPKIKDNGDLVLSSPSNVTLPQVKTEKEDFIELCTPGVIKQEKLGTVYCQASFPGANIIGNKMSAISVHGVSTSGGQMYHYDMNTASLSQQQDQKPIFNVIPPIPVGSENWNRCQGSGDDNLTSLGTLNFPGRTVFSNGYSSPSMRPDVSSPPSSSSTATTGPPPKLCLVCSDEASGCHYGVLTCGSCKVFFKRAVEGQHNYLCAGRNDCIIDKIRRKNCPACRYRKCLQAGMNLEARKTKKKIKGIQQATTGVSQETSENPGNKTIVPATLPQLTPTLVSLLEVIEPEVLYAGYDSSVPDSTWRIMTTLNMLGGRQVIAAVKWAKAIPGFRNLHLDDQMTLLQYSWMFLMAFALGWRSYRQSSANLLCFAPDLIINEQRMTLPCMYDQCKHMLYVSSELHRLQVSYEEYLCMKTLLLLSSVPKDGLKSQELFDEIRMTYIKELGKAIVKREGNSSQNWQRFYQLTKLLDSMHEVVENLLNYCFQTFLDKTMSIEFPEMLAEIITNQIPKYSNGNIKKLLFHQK
Assay: Transrepression Assay (GITAR), TNFα-β-lactamase reporter in U937 cells
Assay type: cell-based
Design: U937 cells contain an endogenous glucocorticoid receptor (GR); endogenous in cells; host or cells: U937 cells stably transfected with the TNF-alpha promoter/beta-lactamase reporter
Settings: for GITAR > GRAMM % SEP: GITAR Emax minus GRAMMER Emax; for EC50: U937 cells, inflection point, read-out: Transrepression U937 Cells GITAR IP
Outline: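 U937 cells with endogenous GR, stably carrying TNFα promoter–β-lactamase, preincubated with compound 30–45 min at 37° C, then stimulated with PMA 5 ng/ml and LPS 100 ng/ml (final) ~18 hr. Read-out via CCF2-AM loading; repression by 100 nM dexamethasone set as 100%.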

[1] = U-937, U937 cells, maximum activity, read-out: Transrepression U937 Cells GITAR Emax
[2] = U-937, activity repressed by 100 nM dexamethasone alone set as 100%, read-out: maximal activity in the transrepression (GITAR) assay

Structure (SMILES) | GITAR > GRAMM % SEP | EC50 | Emax [1] | Emax [2]
C[C@]12Cc3cnn(-c4ccc(F)cc4)c3C=C1CC[C@@H]2CN(CC#N)S(=O)(=O)c1ccc(F)cc1F [Example 51, N-(cyanomethyl)-2,4-difluoro-N-{[(4αR,5S)-1-(4-fluorophenyl)-4α-methyl-1,4,4α,5,6,7-hexahydrocyclopenta[f]indazol-5-yl]methyl}benzenesulfonamide] | 3.5% | 186 nM | 86.8% | > 5%
C[C@]12Cc3cnn(-c4ccc(F)cc4)c3C=C1CC[C@@H]2CN(CC#N)S(=O)(=O)c1ccccc1-c1ccccc1 [Example 53, N-(cyanomethyl)-N-{[(4αR,5S)-1-(4-fluorophenyl)-4α-methyl-1,4,4α,5,6,7-hexahydrocyclopenta[f]indazol-5-yl]methyl}biphenyl-2-sulfonamide] | 36.0% | 832 nM | 54% | > 5%
C[C@]12Cc3cnn(-c4ccc(F)cc4)c3C=C1CC[C@@H]2CN(CC#N)S(=O)(=O)c1ccccc1C(F)(F)F [Example 54, N-(cyanomethyl)-N-{[(4αR,5S)-1-(4-fluorophenyl)-4α-methyl-1,4,4α,5,6,7-hexahydrocyclopenta[f]indazol-5-yl]methyl}-2-(trifluoromethyl)benzenesulfonamide] | 23.1% | 1100 nM | 31.3% | > 5%
C[C@]12Cc3cnn(-c4ccc(F)cc4)c3C=C1CC[C@@H]2CN(CC#N)S(=O)(=O)c1ccccc1C#N [Example 55] | 35.7% | 337 nM | 83.4% | > 5%
Cc1oncc1S(=O)(=O)N(CCO)C[C@H]1CCC2=Cc3c(cnn3-c3ccc(F)cc3)C[C@@]21C [Example 56, N-{[(4αR,5S)-1-(4-fluorophenyl)-4α-methyl-1,4,4α,5,6,7-hexahydrocyclopenta[f]indazol-5-yl]methyl}-N-(2-hydroxyethyl)-5-methylisoxazole-4-sulfonamide] | 36.1% | 643 nM | 86.9% | > 5%
C[C@]12Cc3cnn(-c4ccc(F)cc4)c3C=C1CC[C@@H]2CN(CCO)S(=O)(=O)c1cc(Cl)c(Cl)s1 [Example 58, 4,5-dichloro-N-{[(4αR,5S)-1-(4-fluorophenyl)-4α-methyl-1,4,4α,5,6,7-hexahydrocyclopenta[f]indazol-5-yl]methyl}-N-(2-hydroxyethyl)thiophene-2-sulfonamide] | 25.7% | 737 nM | 28.8% | > 5%
C[C@]12Cc3cnn(-c4ccc(F)cc4)c3C=C1CC[C@@H]2CN(CCO)S(=O)(=O)c1ccc(F)c(F)c1 [Example 59] | 39.6% | 538 nM | 80.9% | > 5%
C[C@]12Cc3cnn(-c4ccc(F)cc4)c3C=C1CC[C@@H]2CN(CCO)S(=O)(=O)c1ccc(C#N)cc1Cl [Example 60, 2-chloro-4-cyano-N-{[(4αR,5S)-1-(4-fluorophenyl)-4α-methyl-1,4,4α,5,6,7-hexahydrocyclopenta[f]indazol-5-yl]methyl}-N-(2-hydroxyethyl)benezenesulfonamide] | 29.0% | 813 nM | 52% | > 5%
C[C@]12Cc3cnn(-c4ccc(F)cc4)c3C=C1CC[C@@H]2CN(CCO)S(=O)(=O)c1cccc(Cl)c1Cl [Example 61, 2,3-dichloro-N-{[(4αR,5S)-1-(4-fluorophenyl)-4α-methyl-1,4,4α,5,6,7-hexahydrocyclopenta[f]indazol-5-yl]methyl}-N-(2-hydroxyethyl)benezenesulfonamide] | 25.5% | 1550 nM | 31.3% | > 5%
C[C@]12Cc3cnn(-c4ccc(F)cc4)c3C=C1CC[C@@H]2CNS(=O)(=O)Cc1cccnc1 [Example 169, N-{[(4αR,5S)-1-(4-fluorophenyl)-4α-methyl-1,4,4α,5,6,7-hexahydrocyclopenta[f]indazol-5-yl]methyl}-1-pyridin-3-ylmethanesulfonamide] | 56.1% | 3030 nM | 68.5% | > 5%
Cc1noc(C)c1S(=O)(=O)N(CC1CCCO1)C[C@H]1CCC2=Cc3c(cnn3-c3ccc(F)cc3)C[C@@]21C (stereo partly drawn) [Example 170, N-{[(4αR,5S)-1-(4-fluorophenyl)-4α-methyl-1,4,4α,5,6,7-hexahydrocyclopenta[f]indazol-5-yl]methyl}-3,5-dimethyl-N-(tetrahydrofuran-2-ylmethyl)isoxazole-4-sulfonamide] | 11.8% | 759 nM | 87.7% | > 5%
Cn1cc(S(=O)(=O)N(CC2CCCO2)C[C@H]2CCC3=Cc4c(cnn4-c4ccc(F)cc4)C[C@@]32C)c(C(F)(F)F)n1 (stereo partly drawn) [Example 175, N-{[(4αR,5S)-1-(4-fluorophenyl)-4α-methyl-1,4,4α,5,6,7-hexahydrocyclopenta[f]indazol-5-yl]methyl}-1-methyl-N-(tetrahydrofuran-2-ylmethyl)-3-(trifluoromethyl)-1H-pyrazole-4-sulfonamide] | – | 822 nM | 47.5% | > 5%
Cc1noc(C)c1S(=O)(=O)N(C)C[C@H]1CCC2=Cc3c(cnn3-c3ccc(F)cc3)C[C@@]21C [Example 176, N-{[(4αR,5S)-1-(4-fluorophenyl)-4α-methyl-1,4,4α,5,6,7-hexahydrocyclopenta[f]indazol-5-yl]methyl}-N,3,5-trimethylisoxazole-4-sulfonamide] | 17.6% | 316 nM | 74.5% | > 5%

Further compounds by falling EC50, results first:

GITAR > GRAMM % SEP | EC50 | Emax [1] | Emax [2] | Structure (SMILES)
46.2% | 959 nM | 61.3% | > 5% | C[C@]12Cc3cnn(-c4ccc(F)cc4)c3C=C1CC[C@@H]2CN(CC#N)S(=O)(=O)c1ccccc1Cl [Example 50, 2-chloro-N-(cyanomethyl)-N-{[(4αR,5S)-1-(4-fluorophenyl)-4α-methyl-1,4,4α,5,6,7-hexahydrocyclopenta[f]indazol-5-yl]methyl}benzenesulfonamide]
22.5% | 869 nM | 54.4% | > 5% | Cc1nn(C)c(Cl)c1S(=O)(=O)N(CC#N)C[C@H]1CCC2=Cc3c(cnn3-c3ccc(F)cc3)C[C@@]21C [Example 52, 5-chloro-N-(cyanomethyl)-N-{[(4αR,5S)-1-(4-fluorophenyl)-4α-methyl-1,4,4α,5,6,7-hexahydrocyclopenta[f]indazol-5-yl]methyl}-1,3-dimethyl-1H-pyrazole-4-sulfonamide]
31.8% | 718 nM | 42.4% | > 5% | COCCN(C[C@H]1CCC2=Cc3c(cnn3-c3ccc(F)cc3)C[C@@]21C)S(=O)(=O)c1cn(C)nc1C(F)(F)F [Example 172, N-{[(4αR,5S)-1-(4-fluorophenyl)-4α-methyl-1,4,4α,5,6,7-hexahydrocyclopenta[f]indazol-5-yl]methyl}-N-(2-methoxyethyl)-1-methyl-3-(trifluoromethyl)-1H-pyrazole-4-sulfonamide]
12.6% | 520 nM | 83% | > 5% | COCCN(C[C@H]1CCC2=Cc3c(cnn3-c3ccc(F)cc3)C[C@@]21C)S(=O)(=O)c1c(C)noc1C [Example 173, N-{[(4αR,5S)-1-(4-fluorophenyl)-4α-methyl-1,4,4α,5,6,7-hexahydrocyclopenta[f]indazol-5-yl]methyl}-N-(2-methoxyethyl)-3,5-dimethylisoxazole-4-sulfonamide]
4.2% | 423 nM | 85.3% | > 5% | CCS(=O)(=O)N(CC1CCCO1)C[C@H]1CCC2=Cc3c(cnn3-c3ccc(F)cc3)C[C@@]21C (stereo partly drawn) [Example 174, N-{[(4αR,5S)-1-(4-fluorophenyl)-4α-methyl-1,4,4α,5,6,7-hexahydrocyclopenta[f]indazol-5-yl]methyl}-N-(tetrahydrofuran-2-ylmethyl)ethanesulfonamide]
16.7% | 410 nM | 88% | > 5% | CCS(=O)(=O)N(CCOC)C[C@H]1CCC2=Cc3c(cnn3-c3ccc(F)cc3)C[C@@]21C [Example 171, N-{[(4αR,5S)-1-(4-fluorophenyl)-4α-methyl-1,4,4α,5,6,7-hexahydrocyclopenta[f]indazol-5-yl]methyl}-N-(2-methoxyethyl)ethanesulfonamide]
